Experimental data from US20160068571A1, “THERAPEUTIC AGENT FOR CARDIAC TAMPONADE” (Research Institute for Protein Science Co., priority 2013, published 2016).
Where no end group is shown, it is not given here.

Key:
Type in all cases: in vivo, Vietnamese minipigs
[1] = test system: histamine; assay: Plasma histamine in porcine cardiac tamponade model; conditions: 15 minutes of the post-tamponade phase; AcPepA 4 mg/kg iv; FIG. 4A
Protocol: (§1) The animals were randomly allocated to either of three experimental groups. Group 1 (n=6) served as the sham^-operated group to which the same time-frame and sampling conditions as in the groups of 2 (n=7) and 3 (n=6) were applied, but without causing cardiac tamponade. Left lateral thoracotomy was performed in all groups. In the groups which developed cardiac tamponade, namely, in the group not treated with AcPepA (herein also referred to as “non-treated group”) and the group treated with AcPepA (herein also referred to as “treated group”), a cannula was fixed into the pericardial cavity. […] After elapse of this period, the fluid was removed from the pericardial cavity and the animals were monitored for 180 minutes post-tamponade. […]
(§2) Plasma concentrations of protein HMGB-1 were determined with a commercially available protein HMGB-1 ELISA kit (Shino-Test Corporation, Kanagawa, Japan). Plasma levels of big-endothelin, a 38 amino acid precursor protein of endothelin-1 (ET-1), were determined with a commercially available kit (Biochemica Hungaria Kft., Budapest, Hungary). Plasma histamine concentrations were determined by commercially available enzyme-linked immunoassay (Quantikine ultrasensitive EIA kit for histamine; Biomedica Hungaria Kft, Budapest, Hungary).

[2] = test system: acute porcine model of experimental cardiac tamponade; assay: Macro-hemodynamic measurements in acute porcine model of experimental cardiac tamponade; conditions: for central venous pressure: FIG. 2A; for global end-diastolic volume index: FIG. 2B; for superior mesenteric artery blood flow: FIG. 3A; for heart rate: FIG. 2C
Protocol: Inbred Vietnamese minipigs of both sexes (n=19, weighing 24±3 kg) were fasted for twelve (12) hours preoperatively, but received water ad libitum. Anesthesia was induced with a mixture of ketamine (20 mg/kg) and xylazine (2 mg/kg) im and maintained with a continuous infusion of propofol (50 μL/min/kg iv; 6 mg/kg/hr). After endotracheal intubation, the animals were mechanically ventilated with the tidal volume set at 9±2 mL/kg, and the respiratory rate was adjusted to maintain the end-tidal pressure of CO2 and PaCO2 in the range of 35 to 45 mmHg. Positive end-expiratory pressure was not applied during the period of cardiac tamponade.
The animals were placed in a supine position on an electric heating pad for maintenance of body temperature between 36 and 37° C., and received an infusion of Ringer's lactate at a rate of 10 mL/kg/h during the experiment. The right femoral artery and jugular vein were cannulated for the measurement of mean arterial pressure (“MAP”) and cardiac output (“CO”) by thermodilution (PICCO catheters, PULSION Medical Systems, Germany), and for fluid or drug administration, respectively. […] An ultrasonic flow probe (Transonic Systems Inc., Ithaca, N.Y., U.S.A.) was placed around the exposed SMA to measure the mesenteric blood flow. In all protocols, the animals were monitored continuously, arterial blood gases were regularly checked (Cobas b121, Roche, Austria), and a period of 30 minutes was allowed for recovery from surgery.
The animals were randomly allocated to either of three experimental groups. Group 1 (n=6) served as the sham^-operated group to which the same time-frame and sampling conditions as in the groups of 2 (n=7) and 3 (n=6) were applied, but without causing cardiac tamponade. Left lateral thoracotomy was performed in all groups. In the groups which developed cardiac tamponade, namely, in the group not treated with AcPepA (herein also referred to as “non-treated group”) and the group treated with AcPepA (herein also referred to as “treated group”), a cannula was fixed into the pericardial cavity. A pericardial tamponade was induced for 60 minutes by the intrapericardial administration of colloid solution, while the mean artery pressure was kept in the interval of 40 to 45 mmHg. After elapse of this period, the fluid was removed from the pericardial cavity and the animals were monitored for 180 minutes post-tamponade. Group 3 (the treated group) was treated with AcPepA (a single administration of 4 mg/kg in 5 mL saline iv into the jugular vein in a 5-minute infusion) after 45 minutes of cardiac tamponade. The beginning of tamponade is denoting 0 minute. Vehicle (saline) administration was applied in the groups of 1 and 2 by the same protocol.
Central venous pressure (“CVP”) and blood flow signals were continuously monitored and automatically registered with a computerized data-acquisition system (SPELL Haemosys; Experimetria Ltd., Budapest, Hungary). Mean arterial pressure, cardiac output and heart rate were measured with the PICCO Plus monitoring system (PULSION Medical Systems, Germany) and the global end-diastolic volume index (“GEDI”) was calculated with the PICCO system. Incidentally, central venous pressure was measured in each animal to exclude the influence of these factors, in parallel with the standard ventilation and fluid replacement protocols

[3] = test system: big-endothelin; assay: Plasma big-endothelin in porcine cardiac tamponade model; conditions: after cardiac tamponade; AcPepA 4 mg/kg iv; FIG. 4B
Protocol: as §1, §2

[4] = test system: myeloperoxidase; assay: Small intestinal myeloperoxidase activity in porcine cardiac tamponade model; conditions: end of the experiment; AcPepA 4 mg/kg iv; FIG. 5A
Protocol: as §1
The activity of myeloperoxidase, a marker of activation of polymorphonuclear leukocyte, was measured by using ileal biopsy samples according to the method of Kuebler et al. (for review see Kuebler W M, Abels C, Schuerer L, et al: Measurement of neutrophil content in brain and lung tissue by a modified myeloperoxidase assay. Int J Microcirc Clin Exp 1996; 16:89-97). […] Levels of myeloperoxidase were calculated via a calibration curve prepared with an myeloperoxidase standard (Sigma-Aldrich GmbH, Germany). […] Myeloperoxidase activities of such samples were measured as described above, and such data were referred to the protein content.

[5] = test system: whole blood superoxide production; assay: Whole blood superoxide production in porcine cardiac tamponade model; conditions: early stage of the post-tamponade phase; AcPepA 4 mg/kg iv; FIG. 5B
Protocol: The animals were randomly allocated to either of three experimental groups. Group 1 (n=6) served as the sham^-operated group to which the same time-frame and sampling conditions as in the groups of 2 (n=7) and 3 (n=6) were applied, but without causing cardiac tamponade. Left lateral thoracotomy was performed in all groups. In the groups which developed cardiac tamponade, namely, in the group not treated with AcPepA (herein also referred to as “non-treated group”) and the group treated with AcPepA (herein also referred to as “treated group”), a cannula was fixed into the pericardial cavity. A pericardial tamponade was induced for 60 minutes by the intrapericardial administration of colloid solution, while the mean artery pressure was kept in the interval of 40 to 45 mmHg. After elapse of this period, the fluid was removed from the pericardial cavity and the animals were monitored for 180 minutes post-tamponade. […]
During the measurements, 10 μL whole blood was added to 1 mL Hank's solution (PAA Cell Culture Company) and the mixture was kept at 37° C. until assay. The chemiluminometric response was measured with a Lumat LB9507 luminometer (Berthold, Germany) during a 30 minute period after addition of 100 μL of lucigenin.

[6] = test system: mucosal microcirculation of the small intestine; assay: Intravital videomicroscopy of the intestinal microcirculation in porcine cardiac tamponade model; conditions: end of the post-tamponade phase; AcPepA 4 mg/kg iv; FIG. 3B
Protocol: as §1
An intravital orthogonal polarization spectral imaging technique (Cytoscan A/R, Cytometrics, Philadelphia, Pa., USA) was used for noninvasive visualization of the mucosal microcirculation of the small intestine. […] A 10× objective lens was placed onto the serosal surface of the […], and microscopic images were recorded with an S-VHS video recorder 1 (Panasonic AG-TL 700, Matsushita Electric Ind. Co. Ltd, Osaka, Japan). Quantitative assessment of the microcirculatory parameters was performed off-line by frame-to-frame analysis of the videotaped images. […]

[7] = test system: protein HMGB-1; assay: Plasma HMGB-1 in porcine cardiac tamponade model; conditions: after cardiac tamponade; AcPepA 4 mg/kg iv; FIG. 4C
Protocol: as §1, §2

[8] = after relief of cardiac tamponade, AcPepA 4 mg/kg iv
[9] = during the period of cardiac tamponade, treated group vs sham-operated group

With “AcPepA: 17 amino acid peptide (Ala Ser Gly Ala Pro Ala Pro Gly Pro Ala Gly Pro Leu Arg Pro Met Phe), N-terminal alanine acetylated; C5A antagonist (Ac-ASGAPAPGPAGPLRPMF)” the “histamine levels in blood plasma” value [1] was “decreased significantly in the treated group as compared with in the non-treated group and showed the same values as in the sham-operated group”, the central venous pressure [2, 8] was “significant high values as compared with in the non-treated group and also showed the same values as in the sham-operated group” and the “global end-diastolic volume index” value [2, 8] was “significant high values as compared with in the non-treated group and also showed the same values as in the sham-operated group”. The mean arterial pressure ([2]; after relief of tamponade, AcPepA 4 mg/kg iv single dose after 45 minutes of tamponade, FIG. 1A) was “significantly high values as compared with in the non-treated group and also showed the same values as in the sham-operated group”, the cardiac output ([2]; after relief of tamponade, AcPepA 4 mg/kg iv, FIG. 1B) was “not affected” and the “superior mesenteric artery blood flow” value ([2]; after relief of tamponade, AcPepA 4 mg/kg iv) was “increased significantly after relief of tamponade as compared with in the sham-operated group”. The “decline in cardiac output” value ([2]; during 60 minutes of cardiac tamponade, treated group (AcPepA 4 mg/kg iv after 45 minutes of tamponade), vs sham-operated group, FIG. 1B) was 65%, the heart rate ([2]; during cardiac tamponade, treated group vs sham-operated group) was “significant increase in heart rate” and the central venous pressure [2, 9] was “significant increase of central venous pressure”. The “global end-diastolic volume index” value [2, 9] was “significant decrease of the global end-diastolic volume index”, the “superior mesenteric artery blood flow” value [2, 9] was “significant decrease in the superior mesenteric artery blood flow” and the heart rate ([2]; post-tamponade period, AcPepA 4 mg/kg iv) was “significant decrease in the post-tamponade period as compared with in the non-treated group”. The plasma big-endothelin levels [3] was “low values as compared with in the non-treated group and also showed the same values as in the sham-operated group”, the “myeloperoxidase activity in small intestine tissue samples (polymorphonuclear leukocyte accumulation)” value [4] was “significant low values in the treated group as compared with in the non-treated group and also showed the same values as in the sham-operated group” and the “whole blood superoxide production” value [5] was “low as compared with in the non-treated group and also showed the same values as in the sham-operated group”. The “average red blood cell verocity” value [6] was “increased significantly from the baseline level and also as compared with in the non-treated group” and the “plasma levels of protein HMGB-1” value [7] was “significant low values as compared with in the non-treated group and also showed the same values as in the sham-operated group”.
